According to ChEMBL document CHEMBL5335850, “Isolation of Paraphaeoketones: A Plausible Biosynthetic Explanation for Paraphaeolactones via a Benzilic Acid Rearrangement Rather than a Favorskii Rearrangement” (J Nat Prod, 2024):
Activity calls are given as the source filed them. The calls are words filed in the database; no cut-off is given here.

Columns and labels:
[1] = test system: Bipolaris oryzae; assay: Antifungal activity against Bipolaris oryzae assessed as inhibition of fungal growth incubated for 5 days by paper disk method; type: functional, organism-based; conditions: time 5.0 day
[2] = test system: COLO 201; assay: Cytotoxicity against human COLO201 cells assessed as inhibition of cell proliferation incubated for 24 hrs by WST-1 reagent based titer-plate reader assay; type: functional

Compound | Activity [1] | Activity [2]
C[C@@H]1C=C[C@@]2(O)[C@H](O)[C@@H]1C(=O)[C@]1(O)O[C@H]3C(=O)[C@@H]4[C@H](C)C=C[C@](O)([C@H]3[C@H]21)[C@@H]4O | inactive | inactive
CC1C=CC2(O)CC(=O)C(=O)C1C2O (stereo unspecified) | inactive | inactive
CC1C2CC3(O)OC(C)(O2)C(=O)C1C3O (stereo unspecified) | inactive | inactive
